Assay results taken from patent US12247033B2, “Triazole-substituted imidazo[1,2-a]pyrimidines as cGAS inhibitors” (GlaxoSmithKline Intellectual Property Development Limited, priority 2022, dated 2025).
Where a name gives a salt, the structure may show the parent alone.

target: human CGAS (157-522) (Homo sapiens, UniProt Q8N884); experiment: biochemical
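Note: biochemical enzyme reaction, 2′3′-cGAMP product measured by RapidFire mass spectrometry (MRM) normalised to c-di-UMP internal standard, inhibition of product formation relative to high and low control wells.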

human CGAS (157-522), sequence (Q8N884 157-522): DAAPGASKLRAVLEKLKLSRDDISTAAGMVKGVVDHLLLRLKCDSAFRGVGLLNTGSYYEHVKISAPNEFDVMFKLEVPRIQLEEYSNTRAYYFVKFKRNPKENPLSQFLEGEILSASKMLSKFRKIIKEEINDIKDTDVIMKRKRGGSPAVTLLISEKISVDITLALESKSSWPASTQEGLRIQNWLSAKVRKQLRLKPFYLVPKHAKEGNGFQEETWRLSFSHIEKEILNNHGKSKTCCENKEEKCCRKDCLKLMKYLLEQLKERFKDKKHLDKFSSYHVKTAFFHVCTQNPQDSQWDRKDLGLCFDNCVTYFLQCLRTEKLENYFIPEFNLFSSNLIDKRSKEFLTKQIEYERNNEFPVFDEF

Compared with CC(C)(C)CNC(=O)c1cnc2nc(-c3nc(C(F)(F)F)n[nH]3)c(-c3cnc[nH]3)n2c1 [Example 94, N-(2,2-dimethylpropyl)-3-(1H-imidazol-5-yl)-2-[3-(trifluoromethyl)-1H-1,2,4-triazol-5-yl]imidazo[1,2-a]pyrimidine-6-carboxamide], Oc1cnc2nc(-c3nc(C(F)(F)F)n[nH]3)c(-c3cnc[nH]3)n2c1 [Example 60, 3-(1H-imidazol-5-yl)-2-[3-(trifluoromethyl)-1H-1,2,4-triazol-5-yl]imidazo[1,2-a]pyrimidin-6-ol] is 2000-fold lower in IC50: 1580 nM for the first, 0.794 nM for the second.

OC1CCN(c2ccn3c(-c4cnc[nH]4)c(-c4nc(C(F)(F)F)n[nH]4)nc3n2)C1 (centres unmarked) [Example 53, 1-[3-(1H-imidazol-5-yl)-2-[3-(trifluoromethyl)-1H-1,2,4-triazol-5-yl]imidazo[1,2-a]pyrimidin-7-yl]pyrrolidin-3-ol] and OC1CCCN(c2ccn3c(-c4cnc[nH]4)c(-c4nc(C(F)(F)F)n[nH]4)nc3n2)C1 (centres unmarked) [Example 56, 1-[3-(1H-imidazol-5-yl)-2-[3-(trifluoromethyl)-1H-1,2,4-triazol-5-yl]imidazo[1,2-a]pyrimidin-7-yl]piperidin-3-ol] are within 1.5-fold of each other in IC50: 15.8 nM for the first, 20 nM for the second.

Going from CC(C)Oc1ccn2c(-c3c[nH]cn3)c(-c3nc(Br)n[nH]3)nc2n1 [Example 40, 3-bromo-5-[3-(1H-imidazol-4-yl)-7-(propan-2-yloxy)imidazo[1,2-a]pyrimidin-2-yl]-1H-1,2,4-triazole] to COC(=O)c1ccn2c(-c3c[nH]cn3)c(-c3nc(Br)n[nH]3)nc2n1 [Example 36, methyl 2-(3-bromo-1H-1,2,4-triazol-5-yl)-3-(1H-imidazol-4-yl)imidazo[1,2-a]pyrimidine-7-carboxylate], the IC50 falls from 25.1 nM to 3.16 nM (7.9-fold). The second is the more potent here.

Compared with CCc1nc2nc(-c3nc(C(F)(F)F)n[nH]3)c(-c3cnc[nH]3)n2cc1C [Example 47, 5-[7-ethyl-3-(1H-imidazol-5-yl)-6-methylimidazo[1,2-a]pyrimidin-2-yl]-3-(trifluoromethyl)-1H-1,2,4-triazole], Cc1cn2c(-c3cnc[nH]3)c(-c3nc(C(F)(F)F)n[nH]3)nc2nc1C [Example 52, 5-[3-(1H-imidazol-5-yl)-6,7-dimethylimidazo[1,2-a]pyrimidin-2-yl]-3-(trifluoromethyl)-1H-1,2,4-triazole] is 3.2-fold higher in IC50: 1.58 nM for the first, 5.01 nM for the second. The first is the more potent here.

Compared with COC(=O)c1ccn2c(-c3cn[nH]c3)c(-c3nc(Br)n[nH]3)nc2n1 [Example 35, methyl 2-(3-bromo-1H-1,2,4-triazol-5-yl)-3-(1H-pyrazol-4-yl)imidazo[1,2-a]pyrimidine-7-carboxylate], FC(F)(F)c1n[nH]c(-c2nc3ncccn3c2-c2cn[nH]c2)n1 [Example 11, 5-[3-(1H-pyrazol-4-yl)imidazo[1,2-a]pyrimidin-2-yl]-3-(trifluoromethyl)-1H-1,2,4-triazole, trifluoroacetic acid salt] is 3.2-fold higher in IC50: 3.16 nM for the first, 10 nM for the second. The first is the more potent here.

Going from CN1Cc2cn3c(-c4cnc[nH]4)c(-c4nc(C(F)(F)F)n[nH]4)nc3nc2C(F)(F)C1 [Example 18, 13,13-difluoro-6-(1H-imidazol-5-yl)-11-methyl-5-[3-(trifluoromethyl)-1H-1,2,4-triazol-5-yl]-2,4,7,11-tetraazatricyclo[7.4.0.0^3,7]trideca-1,3,5,8-tetraene, trifluoroacetic acid salt] to FC(F)(F)c1n[nH]c(-c2nc3nc4c(cn3c2-c2cnc[nH]2)CCO4)n1 [Example 48, 12-(1H-imidazol-5-yl)-11-[3-(trifluoromethyl)-1H-1,2,4-triazol-5-yl]-6-oxa-1,8,10-triazatricyclo[7.3.0.0^3,^7]dodeca-2,7,9,11-tetraene], the IC50 falls from 12.6 nM to 2 nM (6.3-fold).

Compared with FC(F)(F)c1n[nH]c(-c2nc3ncc(Cl)cn3c2-c2cnc[nH]2)n1 [Example 45, 5-[6-chloro-3-(1H-imidazol-5-yl)imidazo[1,2-a]pyrimidin-2-yl]-3-(trifluoromethyl)-1H-1,2,4-triazole], Cc1cnc2nc(-c3nc(C(F)(F)F)n[nH]3)c(-c3cnc[nH]3)n2c1 [Example 54, 5-[3-(1H-imidazol-5-yl)-6-methylimidazo[1,2-a]pyrimidin-2-yl]-3-(trifluoromethyl)-1H-1,2,4-triazole] is 2-fold higher in IC50: 3.16 nM for the first, 6.31 nM for the second.

Going from FC(F)(F)c1n[nH]c(-c2nc3ncc(COc4cccnc4)cn3c2-c2cnc[nH]2)n1 [Example 119, 3-{[3-(1H-imidazol-5-yl)-2-[3-(trifluoromethyl)-1H-1,2,4-triazol-5-yl]imidazo[1,2-a]pyrimidin-6-yl]methoxy}pyridine] to O=C(O)Cc1cnc2nc(-c3nc(C(F)(F)F)n[nH]3)c(-c3cnc[nH]3)n2c1 [Example 92, 2-[3-(1H-imidazol-5-yl)-2-[3-(trifluoromethyl)-1H-1,2,4-triazol-5-yl]imidazo[1,2-a]pyrimidin-6-yl]acetic acid], the IC50 falls from 158 nM to 10 nM (16-fold). The second is the more potent here.

Compared with O=C(O)c1ccn2c(-c3c[nH]cn3)c(-c3nc(C(F)(F)F)n[nH]3)nc2n1 [Example 102, 3-(1H-imidazol-4-yl)-2-[3-(trifluoromethyl)-1H-1,2,4-triazol-5-yl]imidazo[1,2-a]pyrimidine-7-carboxylic acid], FC(F)(F)c1n[nH]c(-c2nc3nc(N4CCOCC4)ccn3c2-c2c[nH]cn2)n1 [Example 42, 4-[3-(1H-imidazol-4-yl)-2-[3-(trifluoromethyl)-1H-1,2,4-triazol-5-yl]imidazo[1,2-a]pyrimidin-7-yl]morpholine] is 7.9-fold higher in IC50: 3.16 nM for the first, 25.1 nM for the second.

Cc1cn(C)c(COCc2cnc3nc(-c4nc(C(F)(F)F)n[nH]4)c(-c4c[nH]cn4)n3c2)n1 [Example 158, 5-(6-{[(1,4-dimethyl-1H-imidazol-2-yl)methoxy]methyl}-3-(1H-imidazol-4-yl)imidazo[1,2-a]pyrimidin-2-yl)-3-(trifluoromethyl)-1H-1,2,4-triazole] and COc1cn2c(-c3c[nH]cn3)c(-c3nc(C(F)(F)F)n[nH]3)nc2nc1C [Example 51, 5-[3-(1H-imidazol-4-yl)-6-methoxy-7-methylimidazo[1,2-a]pyrimidin-2-yl]-3-(trifluoromethyl)-1H-1,2,4-triazole] are within 1.5-fold of each other in IC50: 7.94 nM for the first, 10 nM for the second.

Compared with Cn1cc(-c2c(-c3nc(C(F)(F)F)n[nH]3)nc3ncccn23)cn1 [Example 131, 5-[3-(1-methyl-1H-pyrazol-4-yl)imidazo[1,2-a]pyrimidin-2-yl]-3-(trifluoromethyl)-1H-1,2,4-triazole], CN(C)c1ccn2c(-c3cnc[nH]3)c(-c3nc(C(F)(F)F)n[nH]3)nc2n1 [Example 43] is 1000-fold lower in IC50: 15800 nM for the first, 15.8 nM for the second.

Compared with CN1CCC(Oc2ccn3c(-c4c[nH]cn4)c(-c4nc(C(F)(F)F)n[nH]4)nc3n2)CC1 [Example 132, 4-{[3-(1H-imidazol-4-yl)-2-[3-(trifluoromethyl)-1H-1,2,4-triazol-5-yl]imidazo[1,2-a]pyrimidin-7-yl]oxy}-1-methylpiperidine], COc1cc(OC)n2c(-c3c[nH]cn3)c(-c3nc(C(F)(F)F)n[nH]3)nc2n1 [Example 49, 5-[3-(1H-imidazol-4-yl)-5,7-dimethoxyimidazo[1,2-a]pyrimidin-2-yl]-3-(trifluoromethyl)-1H-1,2,4-triazole] is 3.2-fold lower in IC50: 39.8 nM for the first, 12.6 nM for the second.

Going from Brc1n[nH]c(-c2nc3ncccn3c2-c2c[nH]cn2)n1 [Example 37, 3-bromo-5-[3-(1H-imidazol-4-yl)imidazo[1,2-a]pyrimidin-2-yl]-1H-1,2,4-triazole, trifluoroacetic acid salt] to Cc1n[nH]c(-c2nc3nc(C(F)(F)F)ccn3c2-c2cnc[nH]2)n1 [Example 98, 5-[3-(1H-imidazol-5-yl)-7-(trifluoromethyl)imidazo[1,2-a]pyrimidin-2-yl]-3-methyl-1H-1,2,4-triazole], the IC50 rises from 3.16 nM to 794 nM (250-fold).

First: CS(=O)(=O)Oc1cnc2nc(-c3nc(C(F)(F)F)n[nH]3)c(-c3cnc[nH]3)n2c1 [Example 20, 3-(1H-Imidazol-5-yl)-2-(3-(trifluoromethyl)-1H-1,2,4-triazol-5-yl)imidazo[1,2-a]pyrimidin-6-yl methanesulfonate]
Second: COc1nc2nc(-c3nc(C(F)(F)F)n[nH]3)c(-c3cnc[nH]3)n2cc1C [Example 59, 5-[3-(1H-imidazol-5-yl)-7-methoxy-6-methylimidazo[1,2-a]pyrimidin-2-yl]-3-(trifluoromethyl)-1H-1,2,4-triazole]
The IC50 of the first is 6.3-fold lower: 2 nM for the first, 12.6 nM for the second. The first is the more potent here.

[O-][S+]1CCc2nc3nc(-c4nc(C(F)(F)F)n[nH]4)c(-c4cnc[nH]4)n3cc2C1 (centres unmarked) [Example 116, 6-(1H-imidazol-5-yl)-5-[3-(trifluoromethyl)-1H-1,2,4-triazol-5-yl]-11λ^4-thia-2,4,7-triazatricyclo[7.4.0.0^3,^7]trideca-1,3,5,8-tetraen-11-one] and FC(F)(F)c1n[nH]c(-c2nc3ncc(CCN4CCOCC4)cn3c2-c2cnc[nH]2)n1 [Example 122, 4-{2-[3-(1H-imidazol-5-yl)-2-[3-(trifluoromethyl)-1H-1,2,4-triazol-5-yl]imidazo[1,2-a]pyrimidin-6-yl]ethyl}morpholine] are the same in IC50: 5.01 nM for the first, 5.01 nM for the second.

First: CC(O)C(O)COCc1cnc2nc(-c3nc(C(F)(F)F)n[nH]3)c(-c3cnc[nH]3)n2c1 (centres unmarked) [Example 112, 1-{[3-(1H-imidazol-5-yl)-2-[3-(trifluoromethyl)-1H-1,2,4-triazol-5-yl]imidazo[1,2-a]pyrimidin-6-yl]methoxy}butane-2,3-diol]
Second: FC(F)(F)c1ccn2c(-c3cnc[nH]3)c(-c3ncn[nH]3)nc2n1 [Example 97, 5-[3-(1H-imidazol-5-yl)-7-(trifluoromethyl)imidazo[1,2-a]pyrimidin-2-yl]-1H-1,2,4-triazole]
The IC50 of the first is 1000-fold lower: 7.94 nM for the first, 7940 nM for the second. The first is the more potent here.
